Source: ChEMBL document CHEMBL3867467, “Discovery of indazole ethers as novel, potent, non-steroidal glucocorticoid receptor modulators” (Bioorg Med Chem Lett, 2016)

What was measured:
in vivo [1] = settings: Wistar, rat, iv, 1 umol/kg
Description: Clearance in Wistar rat at 1 umol/kg, iv through bolus administration by LC/MS/MS analysis

in vivo [2] = settings: Wistar, rat, iv, 1 umol/kg; remark: listed apart in the source
Description: Volume of distribution at steady state in Wistar rat at 1 umol/kg, iv through bolus administration by LC/MS/MS analysis

in vivo [3] = settings: Wistar, rat, iv, 1 umol/kg; remark: listed apart in the source
in vivo [4] = settings: Wistar, rat, po, 10 umol/kg
in vivo [5] = settings: Wistar, rat, po, 10 umol/kg; remark: listed apart in the source
in vivo [6] = settings: Lewis, rat, po
Description: AUC in Lewis rat model of SCW-induced joint inflammation at anti-inflammatory ED50 administered via oral gavage once daily for 8 days measured 24 hrs post last dose on day 8 by LC/MS/MS analysis

in vitro [7] = settings: human, plasma
Description: Fraction unbound in human plasma at 10 uM

in vitro [8] = settings: rat, plasma
Description: Fraction unbound in rat plasma at 10 uM

[9] = Intrinsic clearance in rat hepatocytes assessed per million cells; assay type: ADME, cell-based, Hepatocyte; settings: read-out: CLH

Row | Structure (SMILES) | clearance (in vivo [1]) [mL/min/kg] | Vd (in vivo [2]) [L/kg] | half-life (in vivo [3]) [h] | AUC(0-inf) (in vivo [4]) [µM·h] | bioavailability (in vivo [5]) [%] | AUC (in vivo [6]) [µM·h] | fraction unbound at 10 µM (in vitro [7]) | fraction unbound at 10 µM (in vitro [8]) | hepatocyte CLint [9] [µL/min/1e6 cells]
1 | C[C@H](NC(=O)C(F)(F)F)[C@H](Oc1ccc2c(cnn2-c2ccc(F)cc2)c1)c1ccccc1 | 19 | 14 | 11 | 7.1 | 53 | 0.08 | 0.0001 | 0.00011 | 
2 | COc1ccc([C@@H](Oc2ccc3c(cnn3-c3ccc(F)cc3)c2)[C@H](C)NC(=O)C2CC2)cn1 | 28 | 15 |  | 5.9 | 66 | 0.035 | 0.0015 | 0.0063 | 
3 | C[C@]12C=CC(=O)C=C1CC[C@@H]1[C@@H]2[C@@H](O)C[C@@]2(C)[C@H]1CC[C@]2(O)C(=O)CO [PREDNISOLONE] | 54 | 0.63 | 0.27 | 0.35 |  | 0.59 | > 0.41 | 0.31 | 27
